Assay results reported in article PMC12449476, “Transient ligand contacts of the intrinsically disordered N-terminus of neuropeptide Y2 receptor regulate arrestin-3 recruitment” (Nature Communications, 2025).

Tests used:
[1] = test system: bicelle-reconstituted full-length cysteine-deficient Y2R; assay: XL-MS competition experiment; format: binding, human; conditions: 50 × molar excess competitor
Procedure: (§1) Samples were denatured in 10% SDS, 100 mM Tris-HCl (pH 7.5) and subjected to S-Trap enrichment (Protifi, Fairport, NY, USA). Afterwards, proteins were reduced, alkylated, and enzymatically digested with AspN and trypsin according to an existing protocol. Samples were stored at − 20 °C before LC-MS analysis.

WT Nluc-Y2R-eYFP = molecular target: T1, WT Nluc-Y2R-eYFP (Homo sapiens, UniProt P49146); conditions: small molecule antagonist vs labeled NPY; cited from earlier work
T1 construct: expressed in transfected cells; host or cells: membrane preparations of transiently transfected HEK293
T1 sequence (P49146 1-381): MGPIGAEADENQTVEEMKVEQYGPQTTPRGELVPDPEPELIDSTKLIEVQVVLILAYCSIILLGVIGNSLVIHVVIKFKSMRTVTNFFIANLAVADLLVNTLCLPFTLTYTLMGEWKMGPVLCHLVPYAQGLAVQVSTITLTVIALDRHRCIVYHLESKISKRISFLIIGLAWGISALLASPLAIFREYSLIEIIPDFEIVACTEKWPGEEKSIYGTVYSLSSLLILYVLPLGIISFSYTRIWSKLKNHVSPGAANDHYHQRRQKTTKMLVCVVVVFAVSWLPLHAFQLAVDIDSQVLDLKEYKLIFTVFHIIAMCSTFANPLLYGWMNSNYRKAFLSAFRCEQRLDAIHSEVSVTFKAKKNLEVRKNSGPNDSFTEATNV
Description: In the following, we are addressing the Reviewer’s comments point‐by‐point. We quote statements from the Reviewer in bold face. We refer to changes made in the manuscript in yellow italics. Reviewer #1 (Remarks to the Author): In this work ...

[2] = test system: bicelle-reconstituted full-length cysteine-deficient Y2R; assay: XL-MS with full-length Y2R; format: binding, human; conditions: LC-TIMS-MS/MS
Procedure: as §1
Peptide mixtures were reconstituted in an aqueous solution of 3% (v/v) ACN and 0.05% (v/v) TFA prior to LC-TIMS-MS/MS analysis on an UltiMate 3000 RSLC nano-HPLC system (Thermo Fisher Scientific, Waltham, MA, USA) coupled to a timsTOF Pro mass spectrometer (Bruker Daltonics, Bremen, Germany). Peptides were trapped and desalted on a C18 precolumn (Acclaim PepMap 100, 300 μm × 5 mm, 5 μm, 100 Å, Thermo Fisher Scientific, Waltham, MA, USA) with aqueous 0.1 % (v/v) TFA at a flow rate of 30 μL/min (precolumn temperature 50 °C). Using a flow of 300 nL/min, peptide mixtures were then eluted and separated on a self-packed Picofrit C18 column, 75 µm ID x 40 cm, Tip ID 15 µm (New Objective, Littleton, MA, USA), packed with Reprosil-Pur 120 C18-AQ, 3 µm, 120 Å material (Dr. Maisch GmbH, Ammerbuch, Germany) or a µPAC 50 C18 column (PharmaFluidics, Thermo Fisher Scientific, Germany). Linear gradients were from 3% to 50% B over 90 min, 50% to 85% B (over 5 min) and 85% B (5 min); solvent A: water containing 0.1% (v/v) formic acid and solvent B: acetonitrile containing 0.1% (v/v) formic acid, the separation column was kept at 40 °C. To align results obtained with different chromatographic conditions, unmodified peptides were used as indexed retention time (iRT) standards.
Identification of cross-links was performed by a MeroX (v. 2.0.1.7, ref. [77]) search against a fasta file containing the amino acid sequences of triply diazirine-substituted [L17pL, L24pL, L30pL] […] The following settings were employed: semi-specific proteolytic cleavage: C-terminal at Lys and ArgR and N-terminal at Asp and Glu with up to 3 missed cleavages for each site and a maximum of 5 missed cleavages per peptide; peptide length of 4–25 amino acids; fixed modifications: carbamidomethylation of Cys; variable modifications: oxidation of Met; precursor and fragment mass tolerances were set to 10 ppm. […] Two searches were performed per data set, considering photo-leucine reactivity towards (i) only the acidic amino acids Asp and Glu and the protein C-terminus and (ii) reactivity towards all 20 amino acids. Peptide spectral matches were initially filtered to a 10% intensity score, a minimum score cut-off of 30 and 1% FDR (false discovery rate). Lenient FDR filters were compensated by manual validation of all proposed cross-links. In addition, DDA-PASEF data were analyzed with Skyline[78] as described recently. […]

photo-NPY = assay: XL-MS, intramolecular NPY cross-links; format: binding; conditions: detected in N-term peptide experiment only
Procedure: as §1
Peptide mixtures were reconstituted in an aqueous solution of 3% (v/v) ACN and 0.05% (v/v) TFA prior to LC-TIMS-MS/MS analysis on an UltiMate 3000 RSLC nano-HPLC system (Thermo Fisher Scientific, Waltham, MA, USA) coupled to a timsTOF Pro mass spectrometer (Bruker Daltonics, Bremen, Germany). Peptides were trapped and desalted on a C18 precolumn (Acclaim PepMap 100, 300 μm × 5 mm, 5 μm, 100 Å, Thermo Fisher Scientific, Waltham, MA, USA) with aqueous 0.1 % (v/v) TFA at a flow rate of 30 μL/min (precolumn temperature 50 °C). […]
Identification of cross-links was performed by a MeroX (v. 2.0.1.7, ref. [77]) search against a fasta file containing the amino acid sequences of triply diazirine-substituted [L17pL, L24pL, L30pL] […] In addition, DDA-PASEF data were analyzed with Skyline[78] as described recently. […]

Row | Number of peptide-receptor cross-links ([2]; total) | Compound | Effect of excess unlabeled ligand on cross-links [1] | Blocking of high- and low-affinity binding (WT Nluc-Y2R-eYFP) | Number of contact points to Y2R NT [2] | Number of contacts to ECL2 [2] | Number of cross-links to extracellular regions of Y2R [2] | Intra-NPY cross-linked positions (photo-NPY)
1 |  | CCN(CC)C(=O)C(c1ccccc1)N1CCN(c2ccc(NC(=O)c3ccccc3-c3cccnc3)cc2F)CC1 (stereo not shown) [JNJ-31020028, N-(4-{4-[2-(diethylamino)-2-oxo-1-phenylethyl]piperazin-1-yl}-3-fluorophenyl)-2-pyridin-3-ylbenzamide] | essentially abolished all cross-links | can be blocked |  |  |  | 
2 | 40 | photo-NPY: triply diazirine-substituted photo-leucine [L17pL, L24pL, L30pL] NPY variant |  |  | 16 | three | 34 | pL30 & D6
